Test results taken from article PMC11407758, “Integrated stress response (ISR) activation and apoptosis through HRI kinase by PG3 and other p53 pathway-restoring cancer therapeutics” (Oncotarget, 2024).
Read-outs that look alike come from different tables or passages of the source.

Legend:
Type in all cases: cell-based, human
[1] = system: GCN2, PKR, eIF2α, ATF4, CHOP in HT29 cells; assay: Western blot, ISR kinases / eIF2α / ATF4 / CHOP
Method: Figure 7 PG3 induces upregulation of ATF4 through ISR via HRI. (A) HT29 cells were treated with PG3, GSK2606414, TG and ONC201 respectively, or co-treatment with PG3/GSK2606414, PG3/TG, and PG3/ONC201 for 15 h. (B) MEF, MEF^PERK−/− and MEF^GCN2−/− cells were treated with PG3 and ONC201 for 16 hours. (C) HT29 cells were transfected with siControl, siPKR, siHRI and siPKR/siHRI for 24 hours and then treated with PG3 for 16 hours. (D) HCT116 p53^−/− cells were transfected with siControl and siHRI for 24 hours and then treated with PG3 for 16 hours. (E) HCT116 p53^−/− cells were treated with PG3 and ONC201 for indicated times. (F) PANC1-sgCtrl, -sgHRI and -sgPKR cell lines were treated with PG3 and imipridones (ONC201, ONC206 and ONC212) for 16 hours. Western blot was performed using indicated antibodies. (G) Proposed model of PG3-induced cell apoptosis through HRI/ATF4/PUMA axis. Abbreviation: L.E.: Long exposure.
(§1) After treatment, protein lysates were collected for Western blot analysis. A total of 15 μg of protein was used for SDS-PAGE. After primary and secondary antibody incubations, the signal was detected by a chemiluminescence detection kit, imaged by Syngene (Imgen Technologies). Antibodies for NAG-1 (GDF15) and P53 were from Santa Cruz Biotechnology; for caspase 8, cleaved caspase 8, caspase 9, caspase 3, cleavage PARP, eIF2α, p-eIF2α (Ser51), CHOP, ATF4, DR5, and PUMA were from Cell Signaling Technology. Noxa and p21 were from Calbiochem. Ran was from BD Biosciences.
(§2) Supplementary Figure 2: ROS and NO are not responsible for PG3-induced HRI activation. (A, B) cells were pre-treated
(§3) with ZnPP, L-NMMA, SA and NAC for 2 hours respectively, and then ONC201 or PG3 was added to the medium for 24 hour treatment.
(§4) Western blot was performed using indicated antibodies.
(§5) (1 picture or pasted object on this page, not shown here)

ALAS1, UROD = assay: Western blot, heme biosynthesis enzymes
Method: Figure 8 Inhibition of heme biosynthesis leads to upregulation of ATF4. (A) HT29 cells were treated with SA and ONC201 for 20 hours. Western blotting was performed using the indicated antibodies. (B) HT29 cells were transfected with siCtrl, siHRI, siClpX, siALAS1, siClpX/siALAS1 and siClpX/siALAS1/siHRI for 48 hours. (C) HT29 cells were transfected with siCtrl, siLonP1, siClpP for 24 or 48 hours respectively, and then treated with ONC201 for 24 hours. (D) Proposed model of ONC201-induced cell apoptosis through ClpP/ALAS1/HRI/ATF4 axis. (E, F) Silencing of ClpP in HCT116 p53^−/− and MDA-MB-468 cells and then treated with PG3, PG3-Oc and ONC201. Western blot was performed using indicated antibodies.
as §1, §2, §3, §4, §5

[2] = system: HCT116 (wild-type), SW480 (R273H, P309S), and DLD1 (S241F); assay: Cell viability assay in colorectal cancer cell lines (Figure 1E); conditions: 72 h
Method: Figure 1 PG3 inhibits cell proliferation and growth in a p53-indepent manner. (A–E) Cell viability assay, dose response curves and IC50 value measurements in a panel of cancer cell lines and normal cells. Cells were treated with different concentrations of PG3, PG3-Oc (Oc), obatoclax (Ob), prodigiosin (P) or DMSO for 72 h. Luciferase activity was imaged by the IVIS Imaging System after treatment. Cell viability data were normalized to those of DMSO treatment control in each cell line and data analyses were performed using PRISM4 software. IC50 data are expressed as the mean ±SD (normal; n = 3).
Cells were seeded in 96-well plates (6 × 10^3 cells/well). Cells were treated with different concentrations of compounds or dimethyl sulfoxide (DMSO) as a control for 72 hours. The cell viability was assessed by CellTiterGlo bioluminescent cell viability assay (Promega), following the manufacturer’s protocol. Bioluminescence imaging was measured using the IVIS imager. The percentage of cell viability (mean ± SEM) at each dose was calculated against the respective DMSO control. The IC50 values were determined from the sigmoidal dose-response curves using GraphPad Prism.

CC(=O)CC(=O)CCC(=O)O [SA, Succinylacetone]
eIF2α phosphorylation, ATF4 and CHOP ([1]; HT29, 20 hours, comparable to ONC201): eIF2α phosphorylation and upregulation of ATF4 and CHOP | ALAS1 protein level (ALAS1, UROD; HT29, 20 hours): upregulation of ALAS1

COC1=CC(c2cc3ccccc3[nH]2)=N/C1=C\c1[nH]c(C)cc1C [Obatoclax]
potency compared among PG3-Oc, prodigiosin and Obatoclax [2]: same potency

prodigiosin
potency compared among PG3-Oc, prodigiosin and Obatoclax [2]: same potency

Cc1ccccc1CN1C(=O)C2=C(CCN(Cc3ccccc3)C2)N2CCN=C12 [ONC201]
phosphorylation of GCN2 and PKR [1]: does not increase phosphorylation | ALAS1 protein level (ALAS1, UROD): potent downregulation and inhibition of ALAS1 | UROD protein levels (ALAS1, UROD): do not have any effects
